Reference: patent publication US9006218B2, “Nucleoside phosphonate salts” (Chimerix Inc., priority 2010, dated 2015)
Counter-ions that a name gives are not always drawn. Like-named read-outs stand apart in the source and are kept apart here.

Experiments:
[1] = test system: XMRV collected from 22Rv1 prostate cancer cells; experiment: Anti-XMRV cytoprotection assay in PG-4 cells (XTT); type: cell-based, xenotropic murine retrovirus (XMRV)
Protocol: The test materials were evaluated in PG-4 cells against XMRV collected from the cell-free supernatant of 22Rv1 prostate cancer cells using a complete dose response curve. The experimental details and results are discussed below.
Test materials (CMX157 K^+ salt and Tenofovir) were solubilized at 40 mM and 10 mM in water, respectively, and stored at −20° C. Test materials were evaluated using a 1 μM high test concentration and serially diluted in half-log increments for the in vitro antiviral assay (SOW104-11-01). A second assay was performed (SOW104-11-02) using a 1 μM high test concentration for CMX157, but an increased high test concentration of 100 μM for tenofovir. Ribavirin was purchased from Sigma and used as a positive control compound.
(§1) PG-cells (ATCC# CRL-2032; feline astrocytes) were passaged in T-75 flasks in McCoy's 5A medium supplemented with 10% heat inactivated fetal bovine serum, 2 mmol/L L-glutamine, 100 U/ml penicillin and 100 μg/ml streptomycin prior to use in the antiviral assay. On the day preceding the assay, cells were split 1:2 to assure they were in an exponential growth phase at the time of infection. Total cell and viability quantification were performed using a hemocytometer and Trypan Blue dye exclusion. Cell viability was to be greater than 95% for the cells to be utilized in the assay. The cells were resuspended at 5×10^4 cells per ml (SOW104-11-01) or 1×10^5 cells per mL (SOW104-11-02) in tissue culture medium and added to flat bottom microtiter plates in a volume of 100 μI for overnight incubation at 37° C./5% CO2.
(§2) Serial half-log dilutions were performed. Media was removed from the cell monolayer and 100 μL of 2× concentrations of compound-containing media (DMEM supplemented with 2% FBS, 2 mmol/L L-glutamine, 100 U/ml penicillin and 100 μg/ml streptomycin for SOW104-11-01 or PG-4 cell culture medium for SOW104-11-02) was transferred to the 96-well microtiter plate.
The XMRV virus was collected from the cell-free supernatant of 22Rv1 human prostate cancer cells (ATCC# CRL-2505). A pretitered aliquot of virus was removed from the freezer (−80° C.) and allowed to thaw in a biological safety cabinet. The virus was diluted into 2% FBS assay medium such that the amount of virus added to each well in a volume of 100 μl is the amount determined to yield 85 to 95% cell killing at six days post infection (based on optical density values) for SOW104-11-01. PG-4 cell culture medium was used to dilute virus in a volume of 100 μl is the amount determined to yield 85 to 95% cell killing at six days post infection for SOW104-11-02.
(§3) Inhibition of virus induced cytopathic effects (CPE) was quantified by measuring the reduction of the tetrazolium dye XTT (2,3-bis(2-methoxy-4-nitro-5-sulfophenyl)-5-[(phenylamino)carbonyl]-2H-tetrazoIium hydroxide). XTT in metabolically active cells is metabolized by the mitochondrial enzyme NADPH oxidase to a soluble formazan product. XTT solution was prepared daily as a stock of 1 mg/mL in PBS. Phenazine methosulfate (PMS) solution was prepared at 0.15 mg/mL in PBS and stored in the dark at −20° C. XTT/PMS stock was prepared immediately before use by adding 40 μL of PMS per mL of XTT solution. 50 μL of XTT/PMS was added to each well of the plate and the plate incubated for 4 h at 37° C. The 4 h incubation has been empirically determined to be within the linear response range for XTT dye reduction with the indicated numbers of cells for each assay. Adhesive plate sealers were used in place of the lids, the sealed plate was inverted several times to mix the soluble formazan product and the plate was read at 450 nm (650 nm reference wavelength) with a Molecular Devices SpectraMax Plus 384 96 well plate format spectrophotometer.
Raw data was collected from the Softmax Pro 4.6 software and imported into a Microsoft Excel XLfit4 spreadsheet to analyze (four parameter curve fit analysis) and graph the data. […] The EC50, EC90, TC50 and TC90 are expressed means±standard deviation.

LNCaP cells = experiment: Cytotoxicity in LNCaP cells; type: cell-based; conditions: LNCaP cells
Protocol: (§4) Specifically, the anti-XMRV activity assay was completed in LNCaP cells (6 day assay) according to the methods described in PLoS ONE, volume 5 (4), April 2010, e9948, pages 1-7.
(§5) The cytotoxicity of CMX157 in LNCaP cells was also tested.

XMRV = experiment: Anti-XMRV activity assay in LNCaP cells (6 day assay); type: cell-based
Description: as §4

PG-4 cells = experiment: Cytotoxicity in PG-4 cells (XTT, TC50); type: cell-based, feline
Protocol: as §1, §2, §3
(§6) Raw data was collected from the Softmax Pro 4.6 software and imported into a Microsoft Excel XLfit4 spreadsheet to analyze (four parameter curve fit analysis) and graph the data. Using Microsoft Excel, EC50 and EC90 (50% and 90% inhibition of virus replication), TC50 and TC90 (50% and 90% reduction in cell viability) and a therapeutic index (TI, TC50/EC50 and TC90/EC90) are provided. The EC50, EC90, TC50 and TC90 are expressed means±standard deviation. The significant figure is three digits. Raw data for both antiviral activity and toxicity with a graphic representation of the data are provided in a printout summarizing the individual compound activity.

[2] = Cytotoxicity in PG-4 cells (XTT, TC50); type: cell-based, feline; conditions: cat
Protocol: as §1, §2, §3, §6

[3] = type: physicochemical; conditions: general statement, see Example 2
Protocol: Stability testing was performed for CMX157 and its salts to investigate the quality of the compound over time under various environments. Accelerated conditions were established using an Isotemp Vacuum Oven set at either 40° C. or 60° C. If high humidity was needed, a saturated solution of sodium chloride created an air state containing about 75% humidity.
For determining the amount of CMX157 present in the samples within the stability study, a reference standard of a known purity was used. […] For analysis, 40 mg of samples and standards are dissolved in 100.0 mL diluent (80 H2O: 20 Methanol: 2 NH4OH). Separation of the drug substance and impurities was achieved using a mobile phase gradient (Table 1) on a Shimadzu A20 HPLC with a Phenomenex Synergi Polar RP 4μ 150×3 mm column. By comparing the areas for the samples at wavelength of 259 nm (kmax) to that of the reference standard, the percentage of CMX157 was determined.

[4] = Cytotoxicity in LNCaP cells; type: cell-based; conditions: human
Protocol: as §4, §5

[5] = third determination listed in Table 3, run not given
[6] = unidentified retrovirus, 22Rv1, in Mus musculus, read-out: PG-4/XMRV EC50, assay SOW104-11-02: 1×10^5 cells per mL, PG-4 cell culture medium
[7] = unidentified retrovirus, 22Rv1, in Mus musculus, read-out: PG-4/XMRV EC50, assay SOW104-11-01: 5×10^4 cells per ml, DMEM 2% FBS
[8] = unidentified retrovirus, 22Rv1, in Mus musculus, read-out: PG-4/XMRV EC50, third determination listed in Table 3, run not stated
[9] = LNCaP cells, read-out: Cytotoxicity (IC50) LNCaP cells

For C[C@H](Cn1cnc2c(N)ncnc21)OCP(=O)(O)O [Tenofovir, (R)-9-(2-phosphonylmethoxypropyl)adenine], the EC50 ([1]; assay SOW104-11-01: 5×10^4 cells per ml, DMEM 2% FBS, read-out: PG-4/XMRV EC50) was > 1000 nM, the “Therapeutic Index (TC50/EC50)” value ([1]; assay SOW104-11-02) was >41.5 and the EC50 ([1]; assay SOW104-11-02: 1×10^5 cells per mL, PG-4 cell culture medium, read-out: PG-4/XMRV EC50) was 2400 nM. The “Therapeutic Index (TC50/EC50)” value [1, 5] was >38.6, the EC50 ([1]; third determination listed in Table 3, run not given, read-out: PG-4/XMRV EC50) was 2600 nM and the IC50 (LNCaP cells) was > 100000 nM. The EC50 (XMRV) was 4500 ± 3800 nM, the EC90 (XMRV) was 17400 ± 9000 nM and the CC50 (PG-4 cells; assay SOW104-11-01) was > 1000 nM. For the same compound, the CC50 (PG-4 cells; assay SOW104-11-02) was > 100000 nM and the CC50 (PG-4 cells; [5]) was > 100000 nM.
In the case of CC(C)(C)NC(=O)[C@@H]1CN(Cc2cccnc2)CCN1C[C@@H](O)C[C@@H](Cc1ccccc1)C(=O)N[C@H]1c2ccccc2C[C@H]1O [IDV (Indinavir)], the “Therapeutic Index (TC50/EC50)” value ([1]; assay SOW104-11-02) is reported as 2.7, the EC50 [1, 6] is reported as 800 nM and the CC50 ([2]; PG-4 TC50) is reported as 2200 nM.
In the case of CCCCCCCCCCCCCCCCOCCCOP(=O)(O)CO[C@H](C)Cn1cnc2c(N)ncnc21 [CMX157, 3-(hexadecyloxy)propyl hydrogen ((R)-1-(6-amino-9H-purin 9-yl)propan-2-yloxy)methylphosphonate], the “EC50 lower than AZT” value ([1]; XMRV in vitro, versus AZT) is reported as “approximately 20 fold”, the “EC50 lower than TFV” value ([1]; XMRV in vitro, versus TFV) is reported as ~800 fold and the “Therapeutic Index (TC50/EC50)” value ([1]; assay SOW104-11-01) is reported as 10.0. For the same compound, the “Therapeutic Index (TC50/EC50)” value ([1]; assay SOW104-11-02) was >333.0, the “Therapeutic Index (TC50/EC50)” value [1, 5] was 97.8 and the EC50 [1, 7] was 40 nM. The EC50 [1, 6] was 3 nM, the EC50 [1, 8] was 60 nM and the “stability in words, free acid versus salts” value [3] was “relatively unstable”. For the same compound, the IC50 [4, 9] was > 100000 nM, the EC50 (XMRV; 144 h) was 3.1 ± 2.1 nM and the EC90 (XMRV; 144 h) was 37 ± 16 nM. The CC50 ([2]; assay SOW104-11-01, read-out: PG-4 TC50) was 400 nM, the CC50 ([2]; assay SOW104-11-02, read-out: PG-4 TC50) was > 1000 nM and the CC50 ([2]; third determination listed in Table 3, run not given, read-out: PG-4 TC50) was 5900 nM.
Cc1cn([C@H]2C[C@H](N=[N+]=[N-])[C@@H](CO)O2)c(=O)[nH]c1=O [AZT, 3′-azido-2′,3′-dideoxythymidine] showed an EC50 [1, 7] of 800 nM, an EC50 [1, 6] of 70 nM and an EC50 [1, 8] of 600 nM. For the same compound, the IC50 [4] was > 100000 nM, the EC50 (XMRV; 144 h) was 8.1 ± 11 nM and the EC90 (XMRV; 144 h) was 55 ± 51 nM.
CC(C)OC(=O)OCOP(=O)(CO[C@H](C)Cn1cnc2c(N)ncnc21)OCOC(=O)OC(C)C [Tenofovir disoproxil fumarate, 2,4,6,8-Tetraoxa-5-phosphanonanedioic acid, 5-[[(1R)-2-(6-amino-9H-purin-9-yl)-1-methylethoxy]methyl]-, bis(1-methylethyl)ester, 5-oxide, (2E)-2-butenedioate (1:1)] showed an IC50 [4] of 87400 nM, an EC50 (XMRV; 144 h) of 29 ± 26 nM and an EC90 (XMRV; 144 h) of 210 ± 150 nM.
For Cc1nnc(C(=O)NC(C)(C)c2nc(C(=O)NCc3ccc(F)cc3)c(O)c(=O)n2C)o1 [Raltegravir], the IC50 [4, 9] was > 100000 nM, the EC50 (XMRV; 144 h) was 0.54 ± 0.57 nM and the EC90 (XMRV; 144 h) was 3.2 ± 2.9 nM.
In the case of NC(=O)c1ncn([C@@H]2O[C@H](CO)[C@@H](O)[C@H]2O)n1 [Ribavirin, 1-β-D-ribofuranosyl-1,2,4-triazole-3-carboxamide], the “Therapeutic Index (TC50/EC50)” value ([1]; assay SOW104-11-01) is reported as 6.5, the EC50 ([1]; unidentified retrovirus, 22Rv1, in Mus musculus, read-out: PG-4/XMRV EC50, Ribavirin in μg/mL, control of SOW104-11-01) is reported as 10.1 µg/mL and the “PG-4 TC50” value (PG-4 cells; cat) is reported as 65.2 µg/mL.
